According to PMC4890880 (ACS infectious diseases, 2016):
Where two headings read alike, the source gives them in different places.

What was measured:
[1] = test system: Plasmodium berghei (Pb-Luc) exoerythrocytic-stage parasites
[2] = test system: HepG2-A16-CD81EGFP cells; settings: for IC50: read-out: Tox_IC50, HepG2 cytotoxicity
[3] = 2nd round, maximal inhibition in dose series
[4] = sheet 2nd round, maximal inhibition in dose response

O=C(C[C@@H]1CC[C@@H]2[C@H](COC[C@@H](O)CN2C(=O)c2ccncc2)O1)Nc1ccc(-c2ccccc2)cc1 [BRD-K17686828-001-01-0]
PbLuc_max_inhibition (%) [1, 3]: 43% | normalized signal at 0.000508053 (first series) ([1]; concentration 0.000508053, first replicate series, fraction of control): 1.033 | normalized signal at 0.000508053 (second series) ([1]; concentration 0.000508053, second replicate series, fraction of control): 0.8541 | normalized signal at 0.00152416 (first series) ([1]; concentration 0.00152416, first replicate series, fraction of control): 0.9014 | normalized signal at 0.00152416 (second series) ([1]; concentration 0.00152416, second replicate series, fraction of control): 0.8307 | normalized signal at 0.00457247 (first series) ([1]; concentration 0.00457247, first replicate series, fraction of control): 0.9821 | normalized signal at 0.00457247 (second series) ([1]; concentration 0.00457247, second replicate series, fraction of control): 0.9422 | normalized signal at 0.0137174 (first series) ([1]; concentration 0.0137174, first replicate series, fraction of control): 1.011 | normalized signal at 0.0137174 (second series) ([1]; concentration 0.0137174, second replicate series, fraction of control): 0.8936 | normalized signal at 0.0411523 (first series) ([1]; concentration 0.0411523, first replicate series, fraction of control): 0.9016 | normalized signal at 0.0411523 (second series) ([1]; concentration 0.0411523, second replicate series, fraction of control): 0.7632 | normalized signal at 0.123457 (first series) ([1]; concentration 0.123457, first replicate series, fraction of control): 1.067 | normalized signal at 0.123457 (second series) ([1]; concentration 0.123457, second replicate series, fraction of control): 0.5683 | normalized signal at 0.37037 (first series) ([1]; concentration 0.37037, first replicate series, fraction of control): 0.7959 | normalized signal at 0.37037 (second series) ([1]; concentration 0.37037, second replicate series, fraction of control): 0.6689 | normalized signal at 1.11111 (first series) ([1]; concentration 1.11111, first replicate series, fraction of control): 0.9118 | normalized signal at 1.11111 (second series) ([1]; concentration 1.11111, second replicate series, fraction of control): 0.6624 | normalized signal at 3.33333 (first series) ([1]; concentration 3.33333, first replicate series, fraction of control): 0.9028 | normalized signal at 3.33333 (second series) ([1]; concentration 3.33333, second replicate series, fraction of control): 0.8412 | normalized signal at 10 (first series) ([1]; concentration 10, first replicate series, fraction of control): 0.8222 | normalized signal at 10 (second series) ([1]; concentration 10, second replicate series, fraction of control): 0.7063 | IC50 ([1]; read-out: PbLuc_IC50, 2nd round, Broad DOS compounds, unit not printed (dose series head 10 to 0.000508053)): > 10 µM | Tox_max_inhibition (%) [2, 3]: 9% | IC50 ([2]; 2nd round, unit inferred): > 10 µM

O=C(Nc1ccccc1F)N1CCCCN2[C@H](C1)[C@H](c1ccc(/C=C/c3ccccc3)cc1)[C@@H]2CO [BRD-K41549807-001-01-5]
IC50 ([2]; sheet "2nd round"): > 10 µM | Tox_max_inhibition (%) ([2]; sheet "2nd round"): 10%

CCCNC(=O)N1[C@H](C#N)[C@@H](c2ccccc2-c2cccc(C)c2)[C@@H]1CO [BRD-K35047119-001-01-1]
Tox_max_inhibition (%) [2, 3]: 7% | IC50 ([2]; 2nd round, unit inferred): > 10 µM

Fc1cccc(CN2C[C@@H]3N[C@H](C2)C3c2ccc(/C=C/c3ccccc3)cc2)c1 (stereo partly drawn) [BRD-K69682028-019-01-6]
IC50 ([2]; sheet "2nd round"): > 10 µM | Tox_max_inhibition (%) ([2]; sheet "2nd round"): 16%

CO[C@@H]1CN(C)C(=O)c2ccc(NC(=O)Nc3ccccc3F)cc2OC[C@@H](C)N(Cc2ccccc2F)C[C@H]1C [BRD-K00229958-001-01-0]
IC50 ([2]; sheet 2nd round): > 10 µM | Tox_max_inhibition (%) [2, 4]: 7%

C[C@@H]1CN([C@@H](C)CO)C(=O)c2cc(C#Cc3ccccc3)cnc2O[C@H]1CN(C)C(=O)c1ccccc1 [BRD-K77826636-001-01-1]
Tox_max_inhibition (%) [2, 3]: 20% | IC50 ([2]; 2nd round, unit inferred): > 10 µM

C[C@@H]1CCCCO[C@H](CN(C)S(=O)(=O)c2ccccc2)[C@@H](C)CN([C@@H](C)CO)C(=O)c2cc(NC(=O)Nc3ccc4c(c3)OCO4)ccc2O1 [BRD-K94107458-001-01-0]
IC50 ([2]; sheet "2nd round"): > 10 µM | Tox_max_inhibition (%) ([2]; sheet "2nd round"): 5%

COc1ccc2c3c([nH]c2c1)[C@@H](CO)N(S(C)(=O)=O)CC31CCN(C(=O)Nc2ccccc2)CC1 [BRD-K31411295-001-01-9]
IC50 ([2]; sheet "2nd round"): > 10 µM | Tox_max_inhibition (%) ([2]; sheet "2nd round"): 17%

N#C[C@@H]1[C@H](c2ccccc2)[C@H](CO)N1C(=O)Nc1cccc(F)c1 [BRD-K99496840-001-01-9]
IC50 ([2]; sheet 2nd round): > 10 µM | Tox_max_inhibition (%) [2, 4]: 4.23%

COc1ccccc1NC(=O)Nc1ccc2c(c1)OC[C@@H](C)N(Cc1ccccc1Cl)C[C@@H](C)[C@H](OC)CN(C)C2=O [BRD-K28918058-001-01-5]
IC50 ([2]; sheet 2nd round): > 10 µM | Tox_max_inhibition (%) [2, 4]: 13%

CCCC#Cc1ccc2c(c1)O[C@H](CN(C)Cc1ccccn1)[C@H](C)CN([C@@H](C)CO)S2(=O)=O [BRD-K48766892-001-01-4]
IC50 ([2]; sheet "2nd round"): > 10 µM | Tox_max_inhibition (%) ([2]; sheet "2nd round"): 7%

C[C@@H]1CN([C@@H](C)CO)C(=O)Cc2cc(NC(=O)C3CCCCC3)ccc2O[C@H]1CN(C)Cc1ccc(Cl)c(Cl)c1 [BRD-K87663528-001-01-7]
IC50 ([2]; sheet "2nd round"): > 10 µM | Tox_max_inhibition (%) ([2]; sheet "2nd round"): 58%

C/C=C/c1ccc([C@H]2[C@@H](CO)N(C(=O)Nc3ccccc3F)[C@H]2C#N)cc1 [BRD-K12121340-001-01-2]
Tox_max_inhibition (%) [2, 3]: 9% | IC50 ([2]; 2nd round, unit inferred): > 10 µM

C[C@@H]1CN([C@@H](C)CO)C(=O)c2cc(NC(=O)Nc3ccc4c(c3)OCO4)ccc2O[C@@H](C)CCCCO[C@H]1CN(C)S(=O)(=O)c1ccccc1 [BRD-K69357983-001-01-6]
Tox_max_inhibition (%) [2, 3]: 9% | IC50 ([2]; 2nd round, unit inferred): > 10 µM

COc1ccccc1C#Cc1ccc([C@@H]2[C@@H](CO)N3CCCCN(C(=O)C4CCC4)C[C@H]23)cc1 [BRD-K36773541-001-01-9]
IC50 ([2]; sheet 2nd round): > 10 µM | Tox_max_inhibition (%) [2, 4]: 6%

O=C(NCC[C@H]1CC[C@H](NC(=O)c2ccccc2F)[C@@H](CO)O1)c1cnccn1 [BRD-K85850546-001-01-0]
IC50 ([2]; sheet 2nd round): > 10 µM | Tox_max_inhibition (%) [2, 4]: 9%
